Measured values reported in patent US7872052B2, “Use of heterocyclic compounds as SCCE inhibitors” (Arexis AB, priority 2003, dated 2011).

How the values were obtained:
[1] = tested on: Transgenic mice over-expressing human SCCE; assay: Histological studies of skin morphology in SCCE transgenic mice after topical treatment; type: in vivo; conditions: for side effects (unusually thin epidermis): day 8 histology; for Unusually thin epidermis / Morphology changes: topical once daily 8 days, day 8; for Unusually thin epidermis: mice affected/mice in group; for Morphology changes: mice with changes/mice in group
Source text: (§1) Transgenic mice over-expressing human SCCE under the control of the SV40 early promoter were generated as described in WO 02/062135. These transgenic mice show a pattern of SCCE-expression which is similar to the expression pattern seen in psoriasis lesions and chronic lesions in atopic dermatitis in humans, i.e. expression in suprabasal cells which increases with distance from the basal layer. The transgenic mice develop pathological skin changes with marked hyperkeratosis, increased epidermal thickness, and dermal inflammation. From the age of 8-10 weeks transgenic mice show signs of itch, the frequency of which increase with age. The increase marked changes in skin morphology including increased epidermal thickness, also causes higher transepidermal water loss.
(§2) Transgenic mice, 6-9 month of age, were treated daily with compound I-3 (2-(2-Iodo-phenyl)-6,7-dimethoxy-benzo[d][1,3]oxazin-4-one) which was identified as an SCCE inhibitor as described above during 8 days. The substance was initially dissolved in DMSO and formulated in vehicle containing 45% isopropanol, 6% 1,2-propanediol with a 1.2% final concentration of DMSO. Two different concentrations of inhibitor, 300 μM and 30 μM, were formulated.
The study contained four different treatments with 3-4 mice in each group. Each mouse used in the study had phenotypic changes typical of SCCE transgenic animals.
• high dose (300 μM) of compound I-3 • low dose (30 μM) of compound I-3 • positive control (a pharmaceutical formulation (Betnovat, Glaxo SmithKline AB) containing betametasone) • negative control, vehicle (a pharmaceutical formulation lacking active substance)
The formulations (500 μl/mouse) were applied once daily (late afternoon) on the area around the ears and on the back of the mice. Mice were treated during 8 days and measurements of transepidermal water loss (TEWL) were performed during the treatment period.
Histological studies of skin morphology were performed on sacrificed mice after the last day of treatment (day 8). Tissue samples were fixed in 4% phosphate-buffered formaldehyde for 24 h in room temperature (RT) and then embedded in paraffin using standard histological procedure. To analyze tissue morphology, embedded tissue was sectioned (5 μm) and then stained with haematoxylin and Eosin (H/E) using standard histological protocols.

[2] = target: T1, Recombinant active human SCCE (Homo sapiens, UniProt P49862); assay: SCCE Inhibitor Test (chromogenic substrate S-2586, absorbance at 405 nm); type: biochemical; conditions: for IC50: 10 min preincubation, 1 mM S-2586, 60 min, 37° C, pH 7.2; for remaining activity at 10 µM / remaining activity at 1 µM / remaining activity at 5 µM: 1 h; for remaining activity at 10 µM: 10 μM compound; for remaining activity at 1 µM: 1 μM compound; for remaining activity at 5 µM: 5 μM compound
T1 construct: made in house; host or cells: murine C127 cells transfected with a BPV vector (murine MT promoter)
Procedure: Recombinant active human SCCE was produced essentially as described in WO 95/00651. The cDNA encoding human SCCE was introduced into a BPV vector under the control of the murine MT promoter and expressed in transfected C127 cells. The produced SCCE was purified and activated using immobilized bovine trypsin.
SCCE activity was determined using the chromogenic substrate S-2586 (MeO-Suc-Arg-Pro-Tyr-pNA) (Chromogenix, Mölndal, Sweden) by measurement of the change in absorbance at 405 nm essentially as described in WO 95/00651. Inhibitors were dissolved in DMSO and added to the reaction mixture (10 mM sodium phosphate, pH 7.2, 0.5 M NaCl, 2.5 μg/ml SCCE) at appropriate concentrations followed by incubation for 10 min before the start of the enzymatic reaction by subsequent addition of the substrate S-2586 to a final concentration of 1 mM. The change in absorbance at 405 nm after 60 min was recorded and used as a measure of SCCE activity. The assay temperature was 37° C. […] The IC50 values were used to identify compounds as SCCE inhibitors of the invention.

[3] = tested on: Transgenic mice over-expressing human SCCE; assay: Transepidermal water loss (TEWL) in SCCE transgenic mice after topical treatment; type: in vivo; conditions: both concentrations (30 μM and 300 μM), topical once daily, 8 days, relative to positive control Betamethasone
Source text: as §1
as §2, with “Two different concentrations of inhibitor, 300 μM and 30 μM, were formulated.” left out
TEWL was measured on the back of mice with an Evaporimeter from DermaLAB (Cortex Technology ApS, Hadsund, Denmark) according to manufactures protocol. […] TEWL was measured on in the morning at day 0, 3, 5 and 8 for 1 min repeated twice.

[4] = positive control formulation (Betnovat)

T1 sequence (P49862 30-253): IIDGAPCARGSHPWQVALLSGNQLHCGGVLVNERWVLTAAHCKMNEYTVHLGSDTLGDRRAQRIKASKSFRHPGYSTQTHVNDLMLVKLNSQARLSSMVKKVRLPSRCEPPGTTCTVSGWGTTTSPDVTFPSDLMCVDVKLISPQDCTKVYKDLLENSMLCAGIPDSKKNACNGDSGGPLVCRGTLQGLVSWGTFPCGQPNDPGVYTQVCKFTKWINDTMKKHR

SMILES | IC50 [2] [nM] | remaining activity at 10 µM [2] [%] | remaining activity at 1 µM [2] [%] | remaining activity at 5 µM [2] [%] | side effects (unusually thin epidermis) [1] | other results
C[C@H]1C[C@H]2[C@@H]3CCC4=CC(=O)C=C[C@]4(C)[C@@]3(F)[C@@H](O)C[C@]2(C)[C@@]1(O)C(=O)CO [Betamethasone, reference compound] |  |  |  |  | side effects (unusually thin epidermis) found | Unusually thin epidermis [1, 4]: 3/3; Morphology changes [1, 4]: 0/3
COc1cc2nc(-c3ccccc3I)oc(=O)c2cc1OC [Compound I-3, 2-(2-Iodo-phenyl)-6,7-dimethoxy-benzo[d][1,3]oxazin-4-one] | 100 | 0 |  |  | without the side effects | Unusually thin epidermis ([1]; 30 μM): 0/4; Morphology changes ([1]; 30 μM): 1/4; Unusually thin epidermis ([1]; 300 μM): 0/4; Morphology changes ([1]; 300 μM): 1/4; effects on skin morphology ([1]; both concentrations (30 μM and 300 μM), compared with vehicle group): positive effects on skin morphology to a higher degree then vehicle group; improvement of TEWL [3]: improves TEWL with approximately half the efficiency of the positive control

Second part, led by results:

IC50 [2] [nM] | remaining activity at 10 µM [2] [%] | remaining activity at 1 µM [2] [%] | remaining activity at 5 µM [2] [%] | SMILES | side effects (unusually thin epidermis) [1] | other results
1000 |  | 38 | 41 | O=c1oc(-c2cccc3ccccc23)nc2sc3c(c12)CCCC3 [II-18, 2-Naphtalen-1-yl-5,6,7,8-tetrahydro-3-oxa-9-thia-1-aza-fluoren-4-one] |  | 
500 | 1 |  |  | O=c1oc(-c2ccccc2Cl)nc2ccsc12 [II-5, 2-(2-chloro-phenyl)-4H-thieno[3,2-d][1,3]oxazin-4-one] |  | 
1500 |  | 50 | 13 | Cc1sc2nc(-c3ccco3)oc(=O)c2c1C [II-7, 2-Furan-2-yl-5,6-dimethyl-thieno[2,3-d][1,3]oxazin-4-one] |  | 
